Data reported in patent publication US6376510B1, “Neuromuscular relaxants” (Newlaxant LLC, priority 1997, dated 2002).
Where two headings read alike, the source gives them in different places.

Key:
rabbits = experiment: In vivo neuromuscular block and cardiovascular side effects, rabbit (Example 8, Table 7); conditions: for ED50: intravenous dose causing 50% neuromuscular block; for RI (recovery index): spontaneous recovery, 25-75% neuromuscular response; for Onset: time to 80-85% neuromuscular block
[1] = test system: anesthetized rats (evoked responses of anterior tibial muscle); experiment: In vivo neuromuscular block and cardiovascular side effects, anesthetized rat (Example 8, Table 3); conditions: for RI (recovery index): spontaneous recovery, 25-75% neuromuscular response; for Onset: time to 80-85% neuromuscular block
Text: The neuromuscular blocking activity and other effects (e.g. cardiovascular side effects) of selected agents were investigated on several different experimental animals. Justification for this approach lies in the commonly known fact that the pharmacodynamic and pharmacokinetic properties of these agents are markedly variable from species to species. Therefore, the most important aspects of the projected therapeutic utility of these agents, e.g., neuromuscular blocking potency, onset and duration of action, and side effects cannot be ascertained in “in vitro” preparations or by using only one species of animals.
a) Adult, male albino rats were anesthetized with pentobarbital injected intraperitoneally. The trachea was cannulated for artificial respiration via a small animal respirator. The carotid artery was cannulated for recording blood pressure via a transducer and heart rate by a cardiotachograph on a polygraph. One external jugular vein was cannulated for i.v. drug administration. Neuromuscular function was monitored by electromyography, recording evoked responses from the anterior tibial muscle as a result of supramaximal nerve stimuli consisting of single or “train-of-four” rectangular pulses of 0.1-0.2 msec duration every 10-12 seconds, delivered to the sciatic or common peroneal nerve by a laboratory nerve stimulator. Another mode of stimulation included repeated single stimuli delivered at 0.1 Hz or 1 Hz. […] The agents were dissolved in physiologic saline and injected intravenously at appropriate time intervals. The intensity, onset, and duration of neuromuscular block and its type were determined with each agent. Through administering several doses, the doses corresponding to 50%, 80% and 90% neuromuscular block were determined. All agents were compared with selected standard neuromuscular blocking compounds, e.g. succinylcholine, pancuronium, mivacurium, or rocuronium.
Onset=time in minutes to 80-85% neuromuscular block.
RI=recovery index, minutes, spontaneous recovery, 25-75% neuromuscular response.
VB=vagal block, %, at 80-85% neuromuscular blocking dose.
ΔHR=change in heart rate, %, at 80-85% neuromuscular blocking dose.
ΔBP=change in arterial blood pressure, %, at 80-85% neuromuscular blocking dose.

[2] = test system: anesthetized juvenile pigs; experiment: animal or person; type: in vivo; conditions: pig; for ED50: intravenous dose causing 50% neuromuscular block; for RI (recovery index): spontaneous recovery, 25-75% neuromuscular response; for Onset: time to 80-85% neuromuscular block
Text: Both electromyographic and mechanomyographic responses can be quantified.
The techniques described under a) and b) were employed in other species as needed with the modification that juvenile pigs were initially anesthetized with inhalation of halothane (Table 5) and monkeys were initially sedated with intramuscular ketamine injections prior to inducing and maintaining general anesthesia using pentobarbital and propofol administered intravenously (Table 6).

[3] = rat, intravenous dose causing 50% neuromuscular block
[4] = Oryctolagus cuniculus, read-out: ED50
[5] = at 80-85% neuromuscular blocking dose
[6] = rat, at 80-85% neuromuscular blocking dose

SMILES	RI (recovery index) (rabbits)	Onset (rabbits)	RI (recovery index) ([1]; rat)	Onset ([1]; rat)	RI (recovery index) [2]	Onset [2]	ED50 (rabbits; [4])	ΔBP (change in arterial blood pressure) (rabbits; [5])	ΔH (change in heart rate) (rabbits; [5])	ED50 ([1]; Rattus norvegicus, iv)	VB (vagal block) [1, 6]	ΔBP (change in arterial blood pressure) [1, 6]	ΔH (change in heart rate) [1, 6]	other results
CCC(=O)Oc1ccc(C[N+]2(C)C3CCCC2CC(OC(=O)CCCC(=O)OC2CC4CCCC(C2)[N+]4(C)Cc2ccc(OC(=O)CC)c(OC(=O)CC)c2)C3)cc1OC(=O)CC.[Br-].[Br-] (centres unmarked) [bis[N-(3,4-dipropionyloxybenzyl)granataninium-3-yl]glutarate dibromide]	0.55 min	0.7 min	0.4 min	0.55 min	0.65 min	0.5 min								ΔBP (change in arterial blood pressure) (rabbits; in vivo): 0%; ΔH (change in heart rate) (rabbits; in vivo): 0%; ED50 (rabbits): 0.135 mg/kg; VB (vagal block) ([1]; rat, in vivo): 0%; ΔBP (change in arterial blood pressure) ([1]; rat, in vivo): 0%; ΔH (change in heart rate) ([1]; rat, in vivo): 0%; ED50 [1, 3]: 0.26 mg/kg; VB (vagal block) ([2]; in vivo): 35%; ΔBP (change in arterial blood pressure) ([2]; in vivo): 0%; ΔH (change in heart rate) ([2]; in vivo): 0%; ED50 [2]: 0.23 mg/kg
COc1cc(C[N+]23CCC(CC2)C(OC(=O)[C@@H]2[C@@H](C(=O)OC4C[N+]5(Cc6ccc(OC(C)=O)c(OC)c6)CCC4CC5)[C@H]4C=C[C@@H]2C4)C3)ccc1OC(C)=O.[Br-].[Br-] (relative stereo) [bis[N-(4-acetoxy-3-methoxybenzyl)quinuclidinium-3-yl]trans-3,6-endomethylene-1,2,3,6-tetrahydrophthalate dibromide]	4.5 min	2.8 min	3 min	1.8 min										ΔBP (change in arterial blood pressure) (rabbits; in vivo): 0%; ΔH (change in heart rate) (rabbits; in vivo): 0%; ED50 (rabbits): 0.115 mg/kg; VB (vagal block) ([1]; rat, in vivo): 70%; ΔBP (change in arterial blood pressure) ([1]; rat, in vivo): −10%; ΔH (change in heart rate) ([1]; rat, in vivo): −5%; ED50 [1, 3]: 2 mg/kg
CCC(=O)Oc1ccc(C[N+]2(C)[C@@H]3CC[C@H]2C[C@@H](OC(=O)C2CCC2C(=O)O[C@H]2C[C@H]4CC[C@@H](C2)[N+]4(C)Cc2ccc(OC(=O)CC)c(OC(=O)CC)c2)C3)cc1OC(=O)CC.[Br-].[Br-] (stereo partly drawn) [bis[N-(3,4-dipropionyloxybenzyl)tropanium-3α-yl]cyclobutane-1,2-dicarboxylate dibromide]	0.5 min	0.87 min	0.6 min	0.6 min	0.6 min	0.7 min	0.128 mg/kg	0%	0%	0.238 mg/kg	17%	0%	0%	ED50 ([2]; Sus scrofa, read-out: ED50): 0.317 mg/kg; VB (vagal block) [2, 5]: 50%; ΔBP (change in arterial blood pressure) [2, 5]: 0%; ΔH (change in heart rate) [2, 5]: 0%
C[N+]1(C)[C@@H]2CC[C@H]1C[C@@H](OC(=O)CCCC(=O)O[C@H]1C[C@H]3CC[C@@H](C1)[N+]3(C)C)C2.[I-].[I-] [bis[N-methyltropanium-3α-yl]glutarate diiodide, reference compound]			4.2 min	1.2 min						2 mg/kg	100%	0%	0%	
CC[N+]1(C)[C@@H]2CC[C@H]1C[C@@H](OC(=O)CCCCC(=O)O[C@H]1C[C@H]3CC[C@@H](C1)[N+]3(C)CC)C2.[I-].[I-] (stereo partly drawn) [bis[N-ethyltropanium-3α-yl]adipate diiodide, reference compound]	9 min	2.2 min					0.15 mg/kg	0%	0%					
C[N+]1(Cc2ccccc2)[C@@H]2CC[C@H]1C[C@@H](OC(=O)CCCC(=O)O[C@H]1C[C@H]3CC[C@@H](C1)[N+]3(C)Cc1ccccc1)C2.[Br-].[Br-] (stereo partly drawn) [bis[N-benzyltropanium-3α-yl]glutarate dibromide, reference compound]			3.7 min	2.5 min						5.5 mg/kg	100%	−10%	0%	
COc1cc(C[N+]2(C)[C@@H]3CC[C@H]2C[C@@H](OC(=O)C2CCC2C(=O)O[C@H]2C[C@H]4CC[C@@H](C2)[N+]4(C)Cc2cc(OC)c(OC(C)=O)c(OC)c2)C3)cc(OC)c1OC(C)=O.[Br-].[Br-] (stereo partly drawn) [bis[N-(4-acetoxy-3,5-dimethoxybenzyl)tropanium-3α-yl]cyclobutane-1,2-dicarboxylate dibromide]	0.55 min	0.5 min	0.45 min	0.4 min			0.298 mg/kg	0%	0%	0.367 mg/kg	20%	0%	0%	
C[N+]1(Cc2ccccc2Br)[C@@H]2CC[C@H]1C[C@@H](OC(=O)CCCC(=O)O[C@H]1C[C@H]3CC[C@@H](C1)[N+]3(C)Cc1ccccc1Br)C2.[Br-].[Br-] (stereo partly drawn) [bis[N-(2-bromobenzyl)tropanium-3α-yl]glutarate dibromide, reference compound]			3.6 min	2.3 min						1.4 mg/kg	100%	−9%	0%	
COc1ccc(OC)c(C[N+]2(C)C3CCC2CC(OC(=O)C2C4C=CC(C4)C2C(=O)OC2CC4CCC(C2)[N+]4(C)Cc2cc(OC)ccc2OC)C3)c1.[Br-].[Br-] (stereo not drawn) [bis[N-(2,5-dimethoxybenzyl)tropanium-3α-yl]trans-3,6-endomethylene-1,2,3,6-tetrahydrophthalate dibromide]	9 min	4 min	1.9 min	1 min							32%	0%	0%	ΔBP (change in arterial blood pressure) (rabbits; in vivo): 0%; ΔH (change in heart rate) (rabbits; in vivo): 0%; ED50 (rabbits): 0.01 mg/kg; ED50 [1, 3]: 0.057 mg/kg
C[N+]1(CC=Cc2ccccc2)[C@@H]2CC[C@H]1C[C@@H](OC(=O)CCCCCCCCCCC(=O)O[C@H]1C[C@H]3CC[C@@H](C1)[N+]3(C)CC=Cc1ccccc1)C2.[Br-].[Br-] (stereo partly drawn) [bis[N-(3-(phenyl)prop-2-enyl)tropanium-3α-yl]1,10-decanedicarboxylate dibromide, reference compound]					6.4 min	1.60 min								ED50 ([2]; Sus scrofa, read-out: ED50): 0.17 mg/kg; VB (vagal block) [2, 5]: 27%; ΔBP (change in arterial blood pressure) [2, 5]: −10%; ΔH (change in heart rate) [2, 5]: 0%
CCCCC[N+]1(C)[C@@H]2CC[C@H]1C[C@@H](OC(=O)CCCCCCCCC(=O)O[C@H]1C[C@H]3CC[C@@H](C1)[N+]3(C)CCCCC)C2.[Br-].[Br-] (stereo partly drawn) [bis[N-(pentyl)tropanium-3α-yl]sebacate dibromide, reference compound]					6.9 min	2.00 min								ED50 ([2]; Sus scrofa, read-out: ED50): 0.3 mg/kg; VB (vagal block) [2, 5]: 50%; ΔBP (change in arterial blood pressure) [2, 5]: 0%; ΔH (change in heart rate) [2, 5]: 0%
C[N+]1(Cc2ccccc2)[C@@H]2CC[C@H]1C[C@@H](OC(=O)CCCCCCCCC(=O)O[C@H]1C[C@H]3CC[C@@H](C1)[N+]3(C)Cc1ccccc1)C2.[Br-].[Br-] (stereo partly drawn) [bis[N-benzyltropanium-3α-yl]sebacate dibromide, reference compound]	6 min	2.3 min					0.075 mg/kg	0%	0%					
